Test results published in patent US20140348819A1, “Methods of Treating Cancer” (Dana-Farber Cancer Institute, Inc., priority 2011, published 2014).

Test system: six V600E BRAF melanoma cell lines
Assay: Screening of recombinant RTK ligands for ability to confer resistance to BRAFi (PLX4720) or MEKi (PD184352) (Table 4)
Format: cell-based, human
Parameters: ability of recombinant RTK ligand to confer resistance / ability of recombinant RTK ligand to confer resistance (screening value): scale not given here
Description: HGF is the only one that can substantially confer drug resistance to the cell lines.
The complexity of the tumor microenvironment is much greater than an in vitro co-culture system. Therefore, the inventors explored whether the activation of other RTKs could result in a similar resistance as that observed with the activation of MET. To this end, six V600E BRAF melanoma cell lines were tested for their resistance to either BRAFi (PLX4720) or MEKi (PD184352) after the addition of 22 RTK ligands that have the potential of activating almost all known RTKs. […] The activation of a selected subset of these RTKs was confirmed by western blotting and by high throughput tyrosine kinase phosphorylation profiling.

## Collagen II
A2058, PD184352 - 1 uM, ligand 6.25 ng/ml
  ability of recombinant RTK ligand to confer resistance: 0.97
A2058, PD184352 - 1 uM, ligand 25 ng/ml
  ability of recombinant RTK ligand to confer resistance: 0.97
A2058, PD184352 - 1 uM, ligand 100 ng/ml
  ability of recombinant RTK ligand to confer resistance: 0.99
A2058, PD184352 - 1 uM, ligand 400 ng/ml
  ability of recombinant RTK ligand to confer resistance: 1.00
A2058, PD184352 - 1 uM, ligand 1600 ng/ml
  ability of recombinant RTK ligand to confer resistance: 0.92
A2058, PLX4720 - 2 uM, ligand 6.25 ng/ml
  ability of recombinant RTK ligand to confer resistance: 0.95
A2058, PLX4720 - 2 uM, ligand 25 ng/ml
  ability of recombinant RTK ligand to confer resistance: 0.99
A2058, PLX4720 - 2 uM, ligand 100 ng/ml
  ability of recombinant RTK ligand to confer resistance: 0.96
A2058, PLX4720 - 2 uM, ligand 400 ng/ml
  ability of recombinant RTK ligand to confer resistance: 0.95
A2058, PLX4720 - 2 uM, ligand 1600 ng/ml
  ability of recombinant RTK ligand to confer resistance: 0.96
C32, PD184352 - 1 uM, ligand 6.25 ng/ml
  ability of recombinant RTK ligand to confer resistance: 0.99
C32, PD184352 - 1 uM, ligand 25 ng/ml
  ability of recombinant RTK ligand to confer resistance: 1.03
C32, PD184352 - 1 uM, ligand 100 ng/ml
  ability of recombinant RTK ligand to confer resistance: 1.06
C32, PD184352 - 1 uM, ligand 400 ng/ml
  ability of recombinant RTK ligand to confer resistance: 1.18
C32, PD184352 - 1 uM, ligand 1600 ng/ml
  ability of recombinant RTK ligand to confer resistance: 1.14
C32, PLX4720 - 2 uM, ligand 6.25 ng/ml
  ability of recombinant RTK ligand to confer resistance: 1.03
C32, PLX4720 - 2 uM, ligand 25 ng/ml
  ability of recombinant RTK ligand to confer resistance: 0.99
C32, PLX4720 - 2 uM, ligand 100 ng/ml
  ability of recombinant RTK ligand to confer resistance: 0.99
C32, PLX4720 - 2 uM, ligand 400 ng/ml
  ability of recombinant RTK ligand to confer resistance: 1.00
C32, PLX4720 - 2 uM, ligand 1600 ng/ml
  ability of recombinant RTK ligand to confer resistance: 1.02
Colo 829, PD184352 - 1 uM, ligand 6.25 ng/ml
  ability of recombinant RTK ligand to confer resistance: 0.95
Colo 829, PD184352 - 1 uM, ligand 25 ng/ml
  ability of recombinant RTK ligand to confer resistance: 1.02
Colo 829, PD184352 - 1 uM, ligand 100 ng/ml
  ability of recombinant RTK ligand to confer resistance: 1.04
Colo 829, PD184352 - 1 uM, ligand 400 ng/ml
  ability of recombinant RTK ligand to confer resistance: 1.02
Colo 829, PD184352 - 1 uM, ligand 1600 ng/ml
  ability of recombinant RTK ligand to confer resistance: 0.99
Colo 829, PLX4720 - 2 uM, ligand 6.25 ng/ml
  ability of recombinant RTK ligand to confer resistance: 1.00
Colo 829, PLX4720 - 2 uM, ligand 25 ng/ml
  ability of recombinant RTK ligand to confer resistance: 1.13
Colo 829, PLX4720 - 2 uM, ligand 100 ng/ml
  ability of recombinant RTK ligand to confer resistance: 1.06
Colo 829, PLX4720 - 2 uM, ligand 400 ng/ml
  ability of recombinant RTK ligand to confer resistance: 1.02
Colo 829, PLX4720 - 2 uM, ligand 1600 ng/ml
  ability of recombinant RTK ligand to confer resistance: 0.98
G-361, PD184352 - 1 uM, ligand 6.25 ng/ml
  ability of recombinant RTK ligand to confer resistance: 0.96
G-361, PD184352 - 1 uM, ligand 25 ng/ml
  ability of recombinant RTK ligand to confer resistance: 1.00
G-361, PD184352 - 1 uM, ligand 100 ng/ml
  ability of recombinant RTK ligand to confer resistance: 0.96
G-361, PD184352 - 1 uM, ligand 400 ng/ml
  ability of recombinant RTK ligand to confer resistance: 1.01
G-361, PD184352 - 1 uM, ligand 1600 ng/ml
  ability of recombinant RTK ligand to confer resistance: 1.03
G-361, PLX4720 - 2 uM, ligand 6.25 ng/ml
  ability of recombinant RTK ligand to confer resistance: 0.97
G-361, PLX4720 - 2 uM, ligand 25 ng/ml
  ability of recombinant RTK ligand to confer resistance: 0.91
G-361, PLX4720 - 2 uM, ligand 100 ng/ml
  ability of recombinant RTK ligand to confer resistance: 0.92
G-361, PLX4720 - 2 uM, ligand 400 ng/ml
  ability of recombinant RTK ligand to confer resistance: 0.96
G-361, PLX4720 - 2 uM, ligand 1600 ng/ml
  ability of recombinant RTK ligand to confer resistance: 0.92
SK-MEL-5, PD184352 - 1 uM, ligand 6.25 ng/ml
  ability of recombinant RTK ligand to confer resistance: 0.96
SK-MEL-5, PD184352 - 1 uM, ligand 25 ng/ml
  ability of recombinant RTK ligand to confer resistance: 0.92
SK-MEL-5, PD184352 - 1 uM, ligand 100 ng/ml
  ability of recombinant RTK ligand to confer resistance: 0.94
SK-MEL-5, PD184352 - 1 uM, ligand 400 ng/ml
  ability of recombinant RTK ligand to confer resistance: 0.99
SK-MEL-5, PD184352 - 1 uM, ligand 1600 ng/ml
  ability of recombinant RTK ligand to confer resistance: 0.94
SK-MEL-5, PLX4720 - 2 uM, ligand 6.25 ng/ml
  ability of recombinant RTK ligand to confer resistance: 1.03
SK-MEL-5, PLX4720 - 2 uM, ligand 25 ng/ml
  ability of recombinant RTK ligand to confer resistance: 1.10
SK-MEL-5, PLX4720 - 2 uM, ligand 100 ng/ml
  ability of recombinant RTK ligand to confer resistance: 1.06
SK-MEL-5, PLX4720 - 2 uM, ligand 400 ng/ml
  ability of recombinant RTK ligand to confer resistance: 1.00
SK-MEL-5, PLX4720 - 2 uM, ligand 1600 ng/ml
  ability of recombinant RTK ligand to confer resistance: 1.08
SK-MEL-28, PD184352 - 1 uM, ligand 6.25 ng/ml
  ability of recombinant RTK ligand to confer resistance: 0.98
SK-MEL-28, PD184352 - 1 uM, ligand 25 ng/ml
  ability of recombinant RTK ligand to confer resistance: 1.10
SK-MEL-28, PD184352 - 1 uM, ligand 100 ng/ml
  ability of recombinant RTK ligand to confer resistance: 0.98
SK-MEL-28, PD184352 - 1 uM, ligand 400 ng/ml
  ability of recombinant RTK ligand to confer resistance: 0.94
SK-MEL-28, PD184352 - 1 uM, ligand 1600 ng/ml
  ability of recombinant RTK ligand to confer resistance: 1.07
SK-MEL-28, PLX4720 - 2 uM, ligand 6.25 ng/ml
  ability of recombinant RTK ligand to confer resistance: 0.94
SK-MEL-28, PLX4720 - 2 uM, ligand 25 ng/ml
  ability of recombinant RTK ligand to confer resistance: 1.12
SK-MEL-28, PLX4720 - 2 uM, ligand 100 ng/ml
  ability of recombinant RTK ligand to confer resistance: 0.98
SK-MEL-28, PLX4720 - 2 uM, ligand 400 ng/ml
  ability of recombinant RTK ligand to confer resistance: 0.95
SK-MEL-28, PLX4720 - 2 uM, ligand 1600 ng/ml
  ability of recombinant RTK ligand to confer resistance: 0.96
